Read-outs that look alike come from different tables or passages of the source.
Legend:
[1] = water/methanol 80:20, one stage
Procedure: The solution was maintained at about 35° C., which is 10° C. above the saturation temperature, for at least 2 hours under gentle agitation for complete dissolution of solids. The solution was cooled down and maintained at room temperature (i.e., 25° C.) overnight (approximately 8 hours).
The concentration of antisolvent introduced to the reactor 403 was suitable to maintain a solution/antisolvent ratio of about 80:20 vol/vol (ml/ml) in all of the experiments.
Three experiments were conducted with one point of antisolvent addition (one stage or one reactor module). The residence time for experiments 1, 2 and 3 were 0.5 to 2 min, respectively.
The process was performed under vacuum. The solid phase was dried overnight (approximately 8 hours) at about 65° C. Raman spectra of the product crystals were collected to ascertain the polymorphic form.

[2] = Crystal size distribution of flufenamic acid crystals by particle analyzer probe (FBRM); type: physicochemical; settings: FIG. 10
Procedure: An undersaturated solution of flufenamic acid (a non-steroidal anti-inflammatory drug) was prepared with 8.7 grams of the active pharmaceutical drug and 700 ml of ethanol (the solvent) in a 1000 ml volumetric flask. The solution was stirred at room temperature (i.e., 25° C.) until complete dissolution.
Flufenamic acid solution and water (the antisolvent) were added to the reactor at constant flow rates using peristaltic pumps. The flow rate of antisolvent added to reactor was chosen in order to maintain a solution/antisolvent ratio of 1:2 vol/vol (ml/ml) in all experiments.
The effects regarding number of addition points of antisolvent on particle size distribution were studied and are summarized in Table 3. In sum, four experiments were conducted. For each experiment, the total antisolvent flow rate was 200 ml/min. In Experiment 1, there was one antisolvent addition point with 200 ml/min of […] added therein. In Experiment 2, there were two antisolvent addition points with 100 ml/min of antisolvent added to the first and second reactor modules, respectively. In Experiment 3, there were three antisolvent addition points with 67 ml/min of antisolvent added to the first, second and third reactor modules, respectively. In Experiment 4, there were four antisolvent addition points with 50 ml/min of antisolvent added to the first, second, third and fourth reactor modules, respectively.
The Raman spectra of the product crystals was collected to ascertain polymorphic form. The CSD of the solid product was also characterized using a particle analyzer probe (e.g., a Lasentec brand probe). The dried crystals were slurried in water and 0.5% of sodium dodecyl sulfate (SDS) surfactant was added to disperse the particles. A magnetic stirrer was used to keep the particles suspended during particle analysis measurements.

[3] = Crystal size distribution of ketoconazole crystals by laser diffraction (continuous plug flow antisolvent crystallization); type: physicochemical
Procedure: A saturated solution of ketoconazole (an anti-fungal drug) was prepared with about 39 grams of the pharmaceutical compound and about 470 ml of methanol as the solvent in a 1000 ml volumetric flask. The solution was maintained at about 35° C. (10° C. above the saturation temperature) for about 2 hours under gentle agitation to ensure complete dissolution of the solids.
The ketoconazole feed solution (ketoconazole and methanol) and the antisolvent (water) were added to the reactor 403 at a constant flow rate using peristaltic pumps 405. The total amount of antisolvent added to the reactor 403 was enough to maintain a solution/antisolvent ratio of about 70:30 vol/vol (ml/ml) in all of the experiments.
The effect of residence time in the reactor (the term residence time is used to denote the total cumulative residence time in all of the reactor modules combined) and number of stages (that is, the number of reactor modules) on crystal size distribution was studied. […]
The effects of residence time and number of stages on the CSD were analyzed. […] Further, the diluted ketoconazole solid in methanol was measured with a UV spectrophotometer (e.g., a GENESYS 20 UV spectrophotometer) in order to determine the concentration of the ketoconazole. […]
The CSD of ketoconazole was measured at different residence times and number of stages as illustrated in Table 1 using laser diffraction. […]

In the case of `NCC(=O)O` [glycine], the “polymorphic form of product crystals” value ([1]; as the residence time increased) is reported as “β-glycine crystals” and the “polymorphic form of product crystals” value ([1]; low residence time) is reported as “α-glycine crystals”.

With `O=C(O)c1ccccc1Nc1cccc(C(F)(F)F)c1` [flufenamic acid] the mean crystal size ([2]; first addition point of antisolvent, ethanol/water 1:2) was 65-70 μm, the mean crystal size ([2]; printed as third addition point (second mention)) was “approximately 110 μm” and the mean crystal size ([2]; second addition point of antisolvent) was “approximately 80 μm”. The mean crystal size ([2]; third addition point of antisolvent) was “approximately 95 μm”.

With `CC(=O)N1CCN(c2ccc(OCC3COC(Cn4ccnc4)(c4ccc(Cl)cc4Cl)O3)cc2)CC1` (centres unmarked) [ketoconazole] the mean crystal size ([3]; FIG. 5, first stage of antisolvent addition, residence time about 40 min, methanol/water 70:30) was “about 2.5 μm” and the mean crystal size ([3]; FIG. 7, two points of antisolvent addition) was “about 3.0 μm”.

Source: patent US8216363B2, “Continuous antisolvent crystallization process and system using plug flow reactors” (Illinois Institute of Technology, priority 2008, dated 2012)
